Data: patent US4518588A, “Process for the preparation of an inclusion complex of N-(1--phenylethyl)-3,3-diphenylpropylamine and the hydrochloride thereof respectively with cyclodextrin” (priority 1981, dated 1985)
“And” between values parts separate entries of the source, which are not always exact repeats. Equal entries are not always repeated. Where two headings read alike, the source gives them in different places. Values belong to the molecule of their own block, whether it stands above or below them.

How the values were obtained:
[1] = Acute toxicity; conditions: mouse, in vivo, dose as phendiline active ingredient, 5% Tween 80; for LD50 at 24 h: observation time 24 hours
[2] = Solubility in words; assay type: physicochemical
[3] = Solubility of phendiline hydrochloride in β-cyclodextrin solutions of various concentration; assay type: physicochemical; conditions: 37° C.; for solubility thermodynamic at 3 h: water with beta-cyclodextrin, phendiline equivalents; for β-cyclodextrin mmole / phendiline mmole: 3 hours
Method: 0.22 g. (0.6 mmole) of phendiline hydrochloride is stirred at 37° C. for 3 hours in 3 ml. of water and in β-cyclodextrin solutions of various concentration by a magnetic stirrer at 150 rot./min rate. The concentration of the dissolved phendiline hydrochloride is determined by spectrophotometry and expressed in phendiline equivalents.

[4] = Resorption tests on Sartorius SM 16750 Resorption model, diffusion and resorption rate constants; assay type: in vitro ADME; conditions: in vitro; for diffusion constant (Kd) from the intestine: resorption from the intestine
Method: (§1) The in vitro tests were justified by the fact that the measurements are much more reproducible than by carrying out the tests in vivo.
The resorption tests were performed on a Sartorius SM 16750 Resorption model, the membranes used were suitable for modelling the resorption from the stomach and from the intestine. On the basis of the test results the diffusion (Kd) and the resorption rate constant (Ki) were calculated for the test substances.

[5] = Thermoanalytical assay; assay type: physicochemical
Method: Thermoanalytical assay of the product according to Example 1.
Phendiline starts to evaporate respectively to decompose at 150° C. and 98% mass change can be observed up to 250° C.

[6] = Determination of dissolved (MG) and resorbed (Mi) active ingredient on Sartorius SM 16751 type model; assay type: in vitro ADME; conditions: 100. minute; segments of the gastro-intestinal system, in vitro; FIG. 1
From the text: as §1
The dissolution and the resorption are subsequent processes which depend greatly on each other. Under physiological conditions resorption is partially influenced by the pH relations at the place of the resorption and partially by the time spent by the pharmaceutical at the place of the resorption.
The average spent time in each segment of the gastro-intestinal system and the pH values are as follows:
The determination of the dissolved (MG) and the resorbed (Mi) active ingredient was performed on a Sartorius SM 16751 type Lose model [H. Stricker: Pharm. Ind. 33, 157 (1971); H. Sticker: Drugs in Germany 14, 93 (1971)].
The amount of the resorbed phendiline, phendiline-CD-complex as well as phendiline hydrochloride and phendiline-hydrochloride-CD-complex from the gastro-intestinal tract is shown in FIG. 2 where F stands for the resorbed amount of phendiline, F-CD stands for the resorbed amount of phendiline-cyclodextrine-complex, FHCl stands for the resorbed amount of phendiline-hydrochloride and FHCl-CD stands for the resorbed amount of phendiline-hydrochloride-cyclodextrine-complex.

[7] = β-cyclodextrin 15 mg./ml. (13.2 mmole/l.)
[8] = β-cyclodextrin 20 mg./ml. (17.6 mmole/l.)
[9] = β-cyclodextrin 25 mg./ml. (22.0 mmole/l.)
[10] = β-cyclodextrin 30 mg./ml. (26.4 mmole/l.)

Molecule: CC(NCCC(c1ccccc1)c1ccccc1)c1ccccc1.Cl (stereo not drawn) [phendiline hydrochloride, N-(1-phenylethyl)-3,3-diphenylpropylamine hydrochloride]
LD50 at 1 h ([1]; ip, intraperitoneal, observation time 1 hour): 81.1 mg/kg | LD50 at 24 h ([1]; po, per os): 522 mg/kg | solubility in water [2]: extremely poor | solubility thermodynamic at 3 h [3, 7]: 4390 µg/mL and 13900 µM | solubility thermodynamic at 3 h [3, 8]: 5950 µg/mL and 18600 µM | solubility thermodynamic at 3 h [3, 9]: 6940 µg/mL and 22000 µM | solubility thermodynamic at 3 h [3, 10]: 7510 µg/mL and 23800 µM | β-cyclodextrin mmole / phendiline mmole [3, 7]: 0.95 | β-cyclodextrin mmole / phendiline mmole [3, 8]: 0.95 | β-cyclodextrin mmole / phendiline mmole [3, 9]: 1.00 | β-cyclodextrin mmole / phendiline mmole [3, 10]: 1.10 | resorption rate constant (Ki) from the intestine [4]: 0.0049 min⁻¹ | diffusion constant (Kd) from the intestine [4]: 6.7 × 10^-4 cm^2 min^-1

decomposition temperature ([5]; thermoanalytical assay): 270 °C
Molecule: Cyclodextrin

temperature of melting with decomposition ([5]; thermoanalytical assay): 300 °C
Molecule: β-cyclodextrin

Molecule: CC(NCCC(c1ccccc1)c1ccccc1)c1ccccc1 (stereo not drawn) [phendiline, N-(1-phenylethyl)-3,3-diphenylpropylamine]
temperature at which it starts to evaporate respectively to decompose ([5]; thermoanalytical assay): 150 °C | mass change ([5]; up to 250° C.): 98% | LD50 at 24 h ([1]; ip, intraperitoneal): 47.5 mg/kg | LD50 at 72 h ([1]; po, per os, observation time 72 hours): 512 mg/kg | solubility in water [2]: very poor | solubility in water ([2]; listed as Phendiline): not soluble in water | amount dissolved [6]: 75 mg | resorption rate constant (Ki) from the intestine [4]: 0.0051 min⁻¹ | diffusion constant (Kd) from the intestine [4]: 6.9 × 10^-4 cm^2 min^-1
